The record followed here is patent US20240018121A1, “NOVEL HETEROAROMATIC COMPOUNDS EXHIBITING ANTIFUNGAL ACTIVITY AND THEIR METHOD OF USE” (FOX CHASE CHEMCIAL DIVERSITY CENTER, INC., priority 2020, published 2024).

Common to all, as to type: cell-based
Experiment [1] deals with Aspergillus flavus AFL1 (ATCC MYA-3631). The experiment can be described thus: Fungal MIC Protocol, Aspergillus flavus. As to conditions: for MIC: Aspergillus flavus, read-out: MIC Aspergillus flavus 3631. Here is the method:
(§1) Fungal MIC Protocol: RPMI/MOPS media (Roswell Park Memorial Institute/3-morpholinopropane-1-sulfonic acid media) is prepared by dissolving 8.4 grams RPMI […] (Sigma cat #R1383), 34.52 grams MOPS buffer (Sigma cat #M3.183) and 2 […] glucose in 900 mL deionized water. The pH is adjusted to 7.0 with NaOH and filter sterilized. 0.1 mL, of a stock spore suspension (or loop from frozen stock) is inoculated to a 75 mL tissue culture flask (Falcon cat #353136) containing 50 mL of Potato Dextrose Agar (PDA, 24 grams PD broth (Fisher cat #DF 0549179), 20 grams agar (Fisher cat #BP 1423500) per liter water). Aspergillus and Fusarium strains are grown at 35° C. and Mucor strains are grown at room temperature for 3-5 days. Spores are harvested by flooding the flask with 5 mL phosphate buffered saline (PBS) pH 7.4+0.1% Tween-20 and several glass beads (Fisher cat #S800243) are added to aid in agitation. The supernatant is removed and the OD530 of a 1:100 dilution is measured. Spores are diluted in RPMI/MOPS to a final OD530 of 0.002 for Aspergillus and an OD530 of 0.005 for Fusarium and Mucor. The final concentration of spores is approximately 2×10^4 cfu/mL. Test compound(s) are diluted to 200 ug/mL in RPMI/MOPS ([…]). Ten (10) serial dilutions are prepared with RPMI/MOPS in a 96-well round bottom plate (Fisher cat #353136). For Mucor strains a sterile flat-bottom 96-well plate is used. 50 μl of compound dilutions in duplicate are added to a sterile 96-well round bottom plate. 50 ul of diluted spores are added to the compound-containing plates. Control wells include 1) compound but no cells and 2) spores but no compound. Mix the plates gently by hand, place in ziplock bags and
(§2) incubate at 35° C. for 48 hours. […]

Experiment [2] deals with Aspergillus fumigatus T33439 (ATCC MYA-3626). Description: Fungal MIC Protocol, Aspergillus fumigatus. The conditions noted are these: for MIC: Aspergillus fumigatus, read-out: MIC Aspergillus fumigatus 3626. As to the method: as §1, §2
Experiment [3] has as its system Fusarium falciforme FS1 (ATCC MYA-3636). Description: Fungal MIC Protocol, Fusarium falciforme. The conditions noted are these: Fusarium falciforme, read-out: MIC Fusarium falciforme 3636. Here is the method:
as §1, §2

For experiment [4], the system named is Fusarium solani (ATCC 58877). Description: Fungal MIC Protocol, Fusarium solani. The conditions noted are these: Fusarium solani, read-out: MIC Fusarium solani 58877. Here is the method: as §1, §2
Experiment [5] has as its system Mucor circinelloides 1463(62) (ATCC 26759). The experiment can be described thus: Fungal MIC Protocol, Mucor circinelloides (MIC-50). The conditions noted are these: Mucor circinelloides, read-out: MIC-50 Mucorales circinelloides 26579. As to the method: as §1
(§3) incubate at 35° C. for 48 hours. Score the MIC visually (lowest concentration of compound showing >50% growth inhibition) using an inverted mirror.

For experiment [6], the system named is Mucor ramosissimus 057718 (ATCC 90286). Description: Fungal MIC Protocol, Mucor ramosissimus (MIC-50). The conditions noted are these: Mucor ramosissimus, read-out: MIC-50 Mucorales ramosissimus 90286. As to the method: as §1, §3
A further experiment deals with Candida albicans GDH2346. Description: Candida Minimal Inhibitory Concentration (MIC). As to conditions: for MIC50: Candida albicans, read-out: MIC-50 Candida albicans GDH2346. As to the method: Candida Minimal Inhibitory Concentration (MIC): RPMI/MOPS media is prepared by dissolving 8.4 g RPMI 1640, 34.52 g MOPS buffer and 2 g glucose in 900 mL water. The pH is adjusted to 7.0 with NaOH. The total volume is brought to 1 L and the resulting solution is filter sterilized. The Candida stock is streaked on a Yeast extract Peptone Dextrose (YPD) agar plate and grown at 35° C. for isolation of single colonies. Compounds of the disclosure are diluted to 200 μg/mL in RPMI/MOPS (4.8 ul of 10 mg/mL DMSO stock in 240 ul media). Ten (10) 1:2 serial dilutions are prepared in RPMI/MOPS in a 96-well round bottom plate. Fifty (50) μl of compound dilutions are transferred in duplicate to a sterile tissue culture-treated 96-well flat-bottom, black-sided polypropylene plate. A single colony of Candida from the YPD plate is re-suspended in 5 mL phosphate buffered saline (BS) and optical density (OD) at 600 nm is measured. The suspension is adjusted to OD=1.0 and a 1:1000 dilution is prepared in RPMI/MOPS. Fifty (50) ul aliquots of the diluted yeast are added to the plates containing 50 μL of compound to all wells except 12E-H. Control wells include: 12 A-D cells, no compound and 12 E-H no cells, no compound. The plates are mixed gently by hand and placed in Ziplok bags in a 35° C. incubator. The OD600 is measured at 24 and 48 hours.

Setting [7] is: 100% growth inhibition at 48 hours.
The mark [8] stands for this setting: ATCC58877, 100% growth inhibition at 48 hours.
Setting [9] is: ATCC26759, 50% growth inhibition at 48 hours.
Where [10] appears, read: ATCC90286, 50% growth inhibition at 48 hours.
The mark [11] stands for this setting: GDH2346, 50% growth inhibition at 48 hours.

In brackets after ≈: the same amount, converted by molar mass. Where a name gives a salt, the structure may show the parent alone. Read-outs that look alike come from different tables or passages of the source.

As for `N=C(N)N1CC=C(c2ccc(-c3nnc(-c4ccc(C5=CCN(C(=N)N)CC5)c(F)c4)o3)cc2F)CC1` [Example 49, 4,4′-(4,4′-(1,3,4-oxadiazole-2,5-diyl)bis(2-fluoro-4,1-phenylene)) bis(5,6-dihydropyridine-1(2H)-carboximidamide)], the MIC in experiment [1] (setting [7]) was 0.78 µg/mL (≈ 1.55 µM); in experiment [2] (setting [7]), 3.13 µg/mL (≈ 6.2 µM); in experiment [3] (setting [7]) it was less than 0.1 µg/mL; in experiment [4] (setting [8]) it was 3.13 µg/mL (≈ 6.2 µM). The MIC50 in experiment [5] (setting [9]) is 1.56 µg/mL (≈ 3.09 µM); in experiment [6] (setting [10]), 25 µg/mL (≈ 49.5 µM); with Candida albicans GDH2346 (setting [11]) it was 1.56 µg/mL (≈ 3.09 µM).

For the compound `Cc1cc(-n2cc(-c3ccc(C4=CCN(C(=N)N)CC4)cc3)nn2)ccc1C1=CCN(C(=N)N)CC1` [Example 35, 4-(4-(1-(4-(1-Carbamimidoyl-1,2,3,6-tetrahydropyridin-4-yl)-3-methylphenyl)-1H-1,2,3-triazol-4-yl)phenyl)-5,6-dihydropyridine-1(2H)-carboximidamide], the minimum inhibitory concentration (MIC) in experiment [1] (setting [7]) is 0.39 µg/mL (≈ 0.81 µM); in experiment [2] (setting [7]), 1.56 µg/mL (≈ 3.24 µM); in experiment [3] (setting [7]) it was less than 0.1 µg/mL; in experiment [4] (setting [8]) it was 1.56 µg/mL (≈ 3.24 µM). The MIC50 in experiment [5] (setting [9]) worked out at 0.39 µg/mL (≈ 0.81 µM); in experiment [6] (setting [10]), 25 µg/mL (≈ 51.9 µM); with Candida albicans GDH2346 (setting [11]) it was 0.39 µg/mL (≈ 0.81 µM).

For `N=C(N)N1CC=C(c2ccc(-c3nnc(-c4ccc(C5=CCN(C(=N)N)CC5)cc4F)n3CC(F)(F)F)c(F)c2)CC1` [Example 84, 4-(4-{5-[4-(1-carbamimidoyl-1,2,3,6-tetrahydropyridin-4-yl)-2-fluorophenyl]-4-(2,2,2-trifluoroethyl)-4H-1,2,4-triazol-3-yl}-3-fluorophenyl)-1,2,3,6-tetrahydropyridine-1-carboximidamide hydrochloride], the MIC in experiment [1] (48 h) was 0.39 µg/mL; in experiment [2] (48 h), 0.2 µg/mL; in experiment [3] (48 h), 0.1 µg/mL; in experiment [4] (ATCC58877, 48 h), 0.05 µg/mL. Also, the MIC50 was 0.39 µg/mL in experiment [5] (ATCC26759, 48 h); 0.78 µg/mL in experiment [6] (ATCC90286, 48 h); 0.2 µg/mL in the experiment with Candida albicans GDH2346 (GDH2346, 48 h).

Consider `Cc1cc(C2=CCN(C(=N)N)CC2)ccc1-c1nnc(-c2ccc(C3=CCN(C(=N)N)CC3)cc2)n1C` [Example 21, 4-(4-(5-(4-(1-Carbamimidoyl-1,2,3,6-tetrahydropyridin-4-yl)-2-methylphenyl)-4-methyl-4H-1,2,4-triazol-3-yl)phenyl)-5,6-dihydropyridine-1(2H)-carboximidamide], for which the MIC turned out to be 0.39 µg/mL (≈ 0.787 µM) in experiment [1] (setting [7]), 0.2 µg/mL (≈ 0.404 µM) in experiment [2] (setting [7]), 0.2 µg/mL (≈ 0.404 µM) in experiment [3] (setting [7]) and 0.2 µg/mL (≈ 0.404 µM) in experiment [4] (setting [8]). The MIC50 turned out to be 3.13 µg/mL (≈ 6.32 µM) in experiment [5] (setting [9]), 6.25 µg/mL (≈ 12.6 µM) in experiment [6] (setting [10]) and 0.3 µg/mL (≈ 0.605 µM) in the experiment with Candida albicans GDH2346 (setting [11]).

For `CNc1cc(C2=CCN(C(=N)N)CC2)ccc1-c1nnc(-c2ccc(C3=CCN(C(=N)N)CC3)cc2F)o1` [Example 47a, 4-(4-(5-(4-(1-Carbamimidoyl-1,2,3,6-tetrahydropyridin-4-yl)-2-(methylamino)phenyl)-1,3,4-oxadiazol-2-yl)-3-fluorophenyl)-5,6-dihydropyridine-1(2H)-carboximidamide], the minimum inhibitory concentration (MIC) in experiment [1] (setting [7]) came to 0.39 µg/mL (≈ 0.756 µM); in experiment [2] (setting [7]), 1.56 µg/mL (≈ 3.03 µM). The MIC50 with Candida albicans GDH2346 (setting [11]) is 0.78 µg/mL (≈ 1.51 µM).

`N=C(N)N1CC=C(c2ccc(-c3nnc(-c4ccc(C5=CCN(C(=N)N)CC5)cc4C(F)(F)F)o3)cc2)CC1` [Example 46, 4-(4-(5-(4-(1-Carbamimidoyl-1,2,3,6-tetrahydropyridin-4-yl)-2-(trifluoromethyl)phenyl)-1,3,4-oxadiazol-2-yl)phenyl)-5,6-dihydropyridine-1(2H)-carboximidamide]: the MIC in experiment [1] (setting [7]) and in experiment [2] (setting [7]) was 1.56 µg/mL (≈ 2.91 µM) throughout. The MIC50 in the experiment with Candida albicans GDH2346 (setting [11]) came out at 0.2 µg/mL (≈ 0.373 µM).

Turning to `CNc1cc(C2=CCN(C(=N)N)CC2)ccc1-c1nnc(-c2ccc(C3=CCN(C(=N)N)CC3)cc2NC)o1` [Example 47b, 4,4′-(4,4′-(1,3,4-Oxadiazole-2,5-diyl)bis(3-(methylamino)-4,1-phenylene))bis(5,6-dihydropyridine-1(2H)-carboximidamide)], the “MIC Aspergillus flavus 3631” value in experiment [1] (setting [7]) is 0.78 µg·mL. Further, the “MIC Aspergillus fumigatus 3626” value in experiment [2] (setting [7]) was 0.78 µg·mL. For the same compound, the “MIC-50 Candida albicans GDH2346” value in the experiment on Candida albicans GDH2346 (50% growth inhibition at 48 hours) came out at 1.56 µg/mL (≈ 2.96 µM).

What is called MIC is the lowest concentration found to suppress growth.
